The values below come from patent US20210156844A1, “TMEM16A Modulation for Diagnostic or Therapeutic Use in Pulmonary Hypertension (PH)” (Bayer Aktiengesellschaft, priority 2017, published 2021).

Data set [1] deals with patients with severe IPAH. Put plainly: Hemodynamic effect of a single oral dose of benzbromarone in IPAH patients. It is filed as in vivo, human. Conditions: 200 mg orally. As to the method: All patients provided a written informed consent to participate in the study. Examinations were performed by the same experienced team. For the right heart catheterizations, a 7F quadriple-lumen, balloon-tipped, flow-directed Swan-Ganz catheter (Baxter, Deerfield, Ill.) was introduced using the transjugular approach. Hemodynamic measurements included systolic, diastolic and mean pulmonary arterial pressure, pulmonary arterial wedge pressure, right atrial pressure, and cardiac output measured by the thermodilution technique and calculated using an analog computer system. Pulmonary vascular resistance was derived from the difference of mean pulmonary arterial pressure and pulmonary arterial wedge pressure divided by cardiac output. Cardiac index was determined as the ratio of cardiac output to body surface area. All measurements were performed in the supine position, pressure values were continuously recorded and averaged over several respiratory cycles during spontaneous breathing. […] Partial pressure of oxygen and oxygen saturation of arterialized ear lobe capillary blood and pulmonary arterial blood were determined with an ABL 800 Flex (Radiometer; Copenhagen, Denmark) blood gas analyzer. Systemic blood pressure was measured by a sphygmomanometer.

Another data set has as its system PASMC. Put plainly: Membrane potential (Em) measurement, current clamp, primary PASMC. It counts as cell-based, human. Conditions: BBR 30 μM, T16Ainh-A01 10 μM. The method, then: PASMC were grown on glass coverslips and serum starved for 24-48 hours. The coverslips were perfused with a bath solution composed of (in mM) NaCl 141, KCl 4.7, HEPES 10, glucose 10, CaCl2 1.8, MgCl2 1.2, pH 7.4 (NaOH) at room temperature. Micropipettes were pulled of borosilicate glass capillaries (GC150F-10, Harvard Apparatus Ltd, Edenbridge, Kent, UK) with a P-2000 electrode puller (Sutter Instruments, Novato Ca, USA), and fire polished using a micro-forge (MF-830, Narishige, Tokyo, Japan) to give a final resistance of 3-5 MΩ when filled with the pipette solution (composition in mM: NaCl 10, KCl 125, K2ATP 5, HEPES 10, EGTA 5, MgCl2 4, pH set to 7.2 with KOH). Em was measured with a HEKA EPC10 patch clamp amplifier (Dr. Schulze GmbH, Lambrecht, Germany) in the current clamp mode as described by others (Mason, M J, et al., Biophys. J. (2005) 88, 739-750; Perkins, KL, J. Neurosci. Methods (2006) 154, 1-18).
The liquid junction potential was calculated with the Clampex 10.0 software (Molecular Devices, Sunnyvale Calif., USA) and an online correction was made for each recording. Both at baseline and during perfusion with 30 μM benzbromarone (BBR, Sigma, St Louis Mo., USA) or 10 μM T16Ainh-A01 (Tocris, Bristol, UK), only those recordings in which (1) the Em was constant for at least 3 minutes, and (2) the seal resistance was constantly high (>5 GΩ) were used for the analyses.
The HEK-293 cells were transfected overnight either with the CLCA1 gene containing or with the empty plasmid, using the Effectene transfection reagent kit (Qiagen) and DMEM F-12 complete medium. On the next day, the medium was changed to serum-free SMC Medium. The resulting conditioned media were collected 24 hours later and applied on the PASMC of healthy donors. After 24 hours of incubation, the Em of the PASMC was measured as described above. To confirm the presence of CLCA1 in the conditioned medium, 20 μL of conditioned medium as well as control medium (collected from cells transfected with the empty plasmide) were analyzed with western blot as described above, using a CLCA1 antibody (ab108851, Abcam).

The subject of a further data set is hypoxia-exposed mice. Put plainly: Acute hemodynamic effects of benzbromarone in hypoxia-exposed mice. It counts as in vivo, mouse. Conditions: single i.v. bolus of 300 μM. From the text:
The experimental protocol is depicted in FIG. 12A. Male C57BL/6J mice (Charles River) at the age of 10 weeks were either placed into a hypoxic chamber (FiO2=0.1, n=16) for 4 weeks, or kept at normoxic conditions (control group, FiO2=0.21, n=8). According to the reports of Fagan et al. (Fagan, K A, et al. Am. J. Physiol. Lung Cell. Mol. Physiol. (2004) 287, L656-664) and Tuscherer et al. (Tuchscherer, H A, et al., J. Biomech. (2007) 40, 993-1001), a significant increase in the right ventricular systolic pressure (RVSP) and PA muscularization can be observed already after 14 days of hypoxia exposure. Therefore, mice subjected to hypoxia were randomized into two groups at the end of the second week. […]
In mice, in vivo hemodynamics was performed under constant inhalation of 2% isoflurane/oxygen, using the closed chest technique through a small incision on the submandibular area. Body temperature was monitored and maintained at 37±1° C. A limb-lead ECG was recorded and the heart rate was kept constant to avoid changes in the sympathetic tone during the experiment. The right ventricle (RV) was catheterized via the right jugular vein using a 1.4 F Millar catheter (SPR-671, Millar, Houston Tex., USA) and right ventricular systolic pressure (RVSP) was measured continuously. […]

Setting [2] is: after 120 min, 10 patients, no placebo group.

In the case of `CCc1oc2ccccc2c1C(=O)c1cc(Br)c(O)c(Br)c1` [benzbromarone, (2-Ethyl-3-benzofuranyl)-(3,5-dibrom-4-hydroxyphenyl)ketone], the “further changes in the pulmonary or systemic hemodynamics” value in data set [1] was “no further changes”. Besides, in data set [1] (setting [2]), the PVR result is “slight increase” and the mPAP entry is reported as “slight increase”. In data set [1] (throughout the study), the clinical adverse effects result is on record as “No clinical adverse effects”. In addition, the “reversal of the Em of IPAH-PASMC to the levels of PASMC isolated from healthy donors” value with PASMC (PASMC of IPAH patients) is recorded as “completely”. Besides, the “effect on Em of PASMC of donors” value in the data set with PASMC (PASMC of healthy donors) was “no effect”. Also, the RVSP result with hypoxia-exposed mice (mice exposed to 4 weeks of hypoxia) is recorded as “significant decrease”. Besides, in the data set with hypoxia-exposed mice (normoxia control mice), the “RVSP in the control animals” value is reported as “without affecting”.
